Results published in publication PMC8477192, “An ionic lock and a hydrophobic zipper mediate the coupling between an insect pheromone receptor BmOR3 and downstream effectors” (The Journal of Biological Chemistry, 2021).

Key:
Assay type in all cases: cell-based
[1] = molecular target: T1, BmOR3 (Bombyx mori, UniProt Q5FBE0); experiment: BRET-based internalization assay (Rluc-BmOR3 / Lyn-YFP); settings: HEK293 cells; 1 μM, 20 min
Procedure: BRET-based internalization assay was performed as previously described ([57]). Briefly, HEK293 cells treated with Ctrl or β-arrestin-1/2 siRNA, or pretransfected with BmArr, were transiently transfected with N-terminal Rluc-fused BmOR3 and plasma membrane marker Lyn-YFP. Twenty-four hours after transfection, the cells were detached and distributed into a 96-well microplate. After another 24-h incubation at 37 °C, the cells were stimulated with vehicle or 1 μM bombykal at 37 °C for 20 min. Rluc substrate coelenterazine h was added at a final concentration of 5 μM before light emissions of YFP and Rluc were recorded using a Mithras LB 940 microplate reader (Berthold Technologies). The BRET signal was calculated as the ratio of emission of YFP to Rluc.

[2] = molecular target: T2, BmOR3–BmOrco (Bombyx mori, UniProt Q5FBE0); experiment: BmOR3–BmOrco intermolecular BRET assay; settings: HEK293 cells; 5 min stimulation; read-out: EC50 of BRET signal increase between Rluc-BmOR3 and YFP-BmOrco
T2 sequence (Q5FBE0 1-439): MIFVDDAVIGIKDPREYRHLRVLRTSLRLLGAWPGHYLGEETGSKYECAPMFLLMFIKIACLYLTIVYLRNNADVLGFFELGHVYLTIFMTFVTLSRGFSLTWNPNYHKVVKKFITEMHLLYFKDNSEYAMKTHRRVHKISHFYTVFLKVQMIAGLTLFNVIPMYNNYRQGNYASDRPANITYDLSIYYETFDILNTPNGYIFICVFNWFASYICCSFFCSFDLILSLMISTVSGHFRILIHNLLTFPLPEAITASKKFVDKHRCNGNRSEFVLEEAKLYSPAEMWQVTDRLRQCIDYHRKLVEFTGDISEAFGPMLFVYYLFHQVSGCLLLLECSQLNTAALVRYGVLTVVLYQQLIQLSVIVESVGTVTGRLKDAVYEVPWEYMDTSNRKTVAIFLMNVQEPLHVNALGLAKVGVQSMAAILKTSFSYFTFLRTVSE
T2 sequence (Q7YT34 1-472 partner): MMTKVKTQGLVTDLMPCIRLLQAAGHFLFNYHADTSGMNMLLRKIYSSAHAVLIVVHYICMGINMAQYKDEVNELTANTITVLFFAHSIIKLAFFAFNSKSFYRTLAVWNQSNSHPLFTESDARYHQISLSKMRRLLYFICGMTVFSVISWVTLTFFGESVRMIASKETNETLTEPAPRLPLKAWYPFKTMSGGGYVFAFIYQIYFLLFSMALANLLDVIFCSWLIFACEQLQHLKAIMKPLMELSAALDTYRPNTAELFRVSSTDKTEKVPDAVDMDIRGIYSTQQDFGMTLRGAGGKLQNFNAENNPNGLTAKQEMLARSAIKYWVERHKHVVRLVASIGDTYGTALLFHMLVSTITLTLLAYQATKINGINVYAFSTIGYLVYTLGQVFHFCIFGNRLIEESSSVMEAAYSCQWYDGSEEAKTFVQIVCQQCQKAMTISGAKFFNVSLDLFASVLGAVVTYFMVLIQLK
Procedure: HEK293 cells were cotransfected with the N-terminal Rluc-tagged WT BmOR3 together with N-terminal YFP-fused BmOrco plasmids or their mutants. Twenty-four hours after transfection, cells were distributed into a 96-well microplate. After another 24 h, the cells were stimulated with different concentrations of bombykal for 5 min. BRET between RLuc and YFP was measured using a Mithras LB 940 multimode reader after the addition of the RLuc substrate coelenterazine h (5 μM). The BRET signal was calculated as the ratio of emission of YFP (530 nm) to RLuc (485 nm). For the saturation BRET between Rluc-BmOrco and YFP-BmOR3, HEK293 cells were transfected with a fixed amount of Rluc-BmOrco and increasing amounts of YFP-BmOR3. The BRET signal between RLuc and YFP was directly measured after the addition of the substrate coelenterazine h (5 μM).

[3] = molecular target: T1, BmOR3; experiment: GloSensor cAMP assay; settings: BmOR3-transfected HEK293 cells, not in mock cells; 1 μM forskolin
Procedure: The GloSensor cAMP assay was performed as previously described ([40], [55], [56]). Briefly, HEK293 cells were transfected with the BmOR3 plasmid or empty vector pcDNA3.1 together with the GloSensor plasmid. 24 h after transfection, cells were distributed into 96-well microplates at a density of 50,000 cells/well. After another 24 h, the cells were incubated with DMEM containing 2% (v/v) GloSensor cAMP reagent for 2 h at 37 °C. Cells were then treated with varying concentrations of bombykal followed by the stimulation of 1 μM forskolin. The luminescence intensity was measured using an EnVision multi-label microplate detector (PerkinElmer).

[4] = molecular target: T1, BmOR3; experiment: G protein dissociation BRET assay (TRUPATH probes)
Procedure: The Gi, Gq, Go, Gs, and Gz dissociation BRET probes were from the TRUPATH kit, which was a gift from Bryan Roth (Addgene kit #1000000163 ([31])). HEK293 cells were cotransfected with BmOR3 along with specific G protein BRET probes. After 24 h, the cells were reseeded in 96-well microplates and incubated for another 24 h. The cells were washed twice with Hank's balanced salt solution and stimulated with bombykal at different concentrations for 2 min. The light emission of Rluc8 (400 nm) and GFP10 (510 nm) was measured after the addition of the substrate coelenterazine 400a (5 μM) using a Mithras LB 940 multimode reader (Berthold Technologies). The BRET signal was calculated as the ratio of light emission at 510/400 nm.

[5] = molecular target: T1, BmOR3; experiment: Arrestin-kinase BRET assay; settings: HEK293 cells transfected with BmOR3, BmArr-Rluc and YFP-tagged kinases; 1 μM, 10 min
Procedure: Twenty-four hours after transfection, cells were distributed into a 96-well microplate. After another 24 h, the cells were stimulated with 1 μM bombykal (for BmOR3-transfected cells) or 1 μM AngII for 10 min (for AT1R-transfected cells). BRET between RLuc and YFP was measured using a Mithras LB 940 multimode reader after the addition of the RLuc substrate coelenterazine h (5 μM). The BRET signal was calculated as the ratio of emission of YFP (530 nm) to RLuc (485 nm).

`CCC/C=C\C=C\CCCCCCCCC=O` [bombykal] was tested. Which “BmOR3 internalization (BRET signal between Rluc-BmOR3 and Lyn-YFP)” value [1] did it give?
Its value is “significant decrease in the BRET signal”.

And the EC50 [2]?
The EC50 was 36 ± 3.89 nM.

And the “forskolin-induced cAMP” value [3]?
The value was “concentration-dependent decrease”.

What about the Go activation ([4]; HEK293 cells transfected with BmOR3, Go probes) of the same compound?
The Go activation was “did not induce”.

And the Gq activation ([4]; HEK293 cells transfected with BmOR3, Gq probes)?
The Gq activation was “did not induce”.

What about the Gs activation ([4]; HEK293 cells transfected with BmOR3, Gs probes) of the same compound?
Its Gs activation is “did not induce”.

What about the Gz activation ([4]; HEK293 cells transfected with BmOR3, Gz probes) of the same compound?
Its Gz activation is “did not induce”.

What about the EC50 ([4]; HEK293 cells, Gi BRET probes, 2 min stimulation, read-out: EC50 of Gi activation through BmOR3 (decrease of the BRET signal)) of the same compound?
The EC50 was 16.4 ± 5.04 nM.

And the “association of β-arrestin with ERK, SRC, and AKT” value [5]?
The value was “increased association”.
